Assay [1] has as its target T1, cynomolgus monkey prostatic 5α-reductase (Macaca fascicularis, UniProt Q28892).
T1 construct: microsomal preparations of the 5α-reductase enzyme from laboratory animal prostate tissue; from tissue; host or cells: cynomolgus monkey prostate, microsomes
T1 sequence (Q28892 1-254): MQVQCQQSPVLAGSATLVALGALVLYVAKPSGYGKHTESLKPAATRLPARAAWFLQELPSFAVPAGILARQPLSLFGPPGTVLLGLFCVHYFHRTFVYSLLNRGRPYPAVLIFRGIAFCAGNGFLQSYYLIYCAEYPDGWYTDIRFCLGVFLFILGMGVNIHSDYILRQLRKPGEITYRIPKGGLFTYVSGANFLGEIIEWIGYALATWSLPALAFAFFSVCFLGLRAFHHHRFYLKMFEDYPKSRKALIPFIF
Put plainly: In vitro 5α-reductase assay, prostate microsomes. The class given is biochemical. The conditions noted are these: mean of duplicates. The method, then:
In vitro 5α-reductase assays: The activity of the present compounds as inhibitors of steroid 5α-reductase was determined using microsomal preparations of the 5α-reductase enzyme from laboratory animal prostate tissue. Specifically, microsomes were isolated from cynomolgus monkey prostate tissue. Protein concentration of the microsomal preparations was determined prior to use of the samples. Individual assays of cynomolgus monkey prostatic 5α-reductase activity contained 0.1 M potassium phosphate-sodium citrate buffer, pH 5.6 1.0% (w/v) bovine serum albumin, […] sodium EDTA, 4 µg of microsomal protein, 1.0 mM NADPH, 5.0 mM glucose-6-phosphate, 1 IU/mL glucose-6-phosphate dehydrogenase, [1,2-^3H]-testosterone (0.15 µCi) plus unlabeled testosterone to yield 0.015 µM (Km = 0.015 µM to 0.091 µM in multiple determinations), and test compound which was dissolved in DMSO then diluted in 0.1 M potassium phosphate-sodium citrate buffer, pH 5.6, to yield a final assay concentration of 0.1% (v/v) DMSO. The same buffer and DMSO without test compound were used in control assays. Background radioactivity was determined from assays containing all components except enzyme. Assays were performed in duplicate. Microsomes, 0.1 M potassium phosphate-sodium citrate buffer, pH 5.6, and test compound were preincubated at 37°C. Aliquots of 180 µL were removed after 0 or 40 minutes of preincubation and added to […] of testosterone substrate suspended in 0.1 M potassium phosphate-sodium citrate buffer, pH 5.6, containing 10% (v/v) DMSO. Remaining enzyme activity was assayed for 10 minutes at 37°C in a Dubnoff shaker incubator.
The reactions were terminated by the addition of 5 mL CHCl3:methanol (2:1) and 0.9 mL water. Carrier steroids were added in the form of 2.5 µg each of testosterone, dihydrotestosterone, and 3,17-androstanediol. Steroid metabolites were then extracted according to the procedure of Moore and Wilson (Methods in Enzymol., O'Malley, B.W. and Hardman, J.G. eds., 36, 1975, pp. 466-474), the organic phase containing the steroids was evaporated using nitrogen gas, the residues were dissolved in 3% (v/v) isopropanol in hexane. The steroids were then separated by normal phase HPLC on a LiCrosorb® DIOL derivatized silica gel column (10 µm; 4 x 250 mm) with a 3% to 7.5% isopropanol in hexane gradient, followed by isocratic conditions of […] isopropanol in hexane. Radioactivity in the steroid peaks was measured using a Packard Radiomatic model HS Flo-One detector. When the compound were tested using the above procedures with cynomolgus monkey 5α-reductase, the following results were obtained: Table 2: […]

Assay [2] addresses T2, cynomolgus monkey C17,20 lyase (Macaca fascicularis, UniProt Q2XVA1).
T2 construct: microsomal preparations of the enzyme from testicular tissue; from tissue; host or cells: cynomolgus monkey testes, microsomes
T2 sequence (Q2XVA1 1-508): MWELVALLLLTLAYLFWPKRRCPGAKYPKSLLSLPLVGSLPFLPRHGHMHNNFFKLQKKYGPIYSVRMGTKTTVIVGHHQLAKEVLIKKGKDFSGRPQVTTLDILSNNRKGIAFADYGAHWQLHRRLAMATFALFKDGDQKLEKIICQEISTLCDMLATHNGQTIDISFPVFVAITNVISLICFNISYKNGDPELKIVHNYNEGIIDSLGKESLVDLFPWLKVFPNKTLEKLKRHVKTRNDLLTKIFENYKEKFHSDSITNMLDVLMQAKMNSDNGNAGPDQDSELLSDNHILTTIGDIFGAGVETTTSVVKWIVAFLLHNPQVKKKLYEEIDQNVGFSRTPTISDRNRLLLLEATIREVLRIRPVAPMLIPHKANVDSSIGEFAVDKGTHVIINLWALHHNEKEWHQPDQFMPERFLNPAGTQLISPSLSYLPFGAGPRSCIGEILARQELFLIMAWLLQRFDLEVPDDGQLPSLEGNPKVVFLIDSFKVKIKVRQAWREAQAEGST
Put plainly: In vitro C17,20 lyase assay, testicular microsomes. Type of assay: biochemical. To be noted: mean of duplicates. How it is done: In vitro C17,20 lyase assays: Compounds were tested for inhibition of cynomolgus monkey C17,20 lyase in vitro using microsomal preparations of the enzyme from testicular tissue. Testes were removed from anesthetized animals and flash frozen in liquid nitrogen. Microsomes were isolated as described in Schatzman et al., Anal. Biochem. 175, 219-226 (1988). The compound to be tested was dissolved in dimethyl sulfoxide and diluted in 0.05 M potassium phosphate buffer, pH 7.4, to give the desired concentrations of test compound, in an amount which contributed 0.1% v/v DMSO to the total assay volume. Assays contained 0.05 M potassium phosphate buffer, pH 7.4, an NADPH regenerating system (1 mM NADPH, 5 mM glucose-6-phosphate, 1 IU/mL glucose-6-phosphate dehydrogenase), test compound, substrate and microsomal protein in a total volume of 0.2 mL. Control assays contained all components, including dimethyl sulfoxide, but not test ccmpound. All assays were performed in duplicate. The test compound was incubated with 20 to 62 µg/mL microsomal protein, buffer, and the NADPH regenerating system described above at 34°C for 0 or 40 minutes. Aliquots of 180 µL were then removed and assayed for enzyme activity by addition to 7-[^3H]-17α-hydroxypregnenolone (11.2 mCi/mmole; 0.2 µCi per assay) plus unlabeled 17α-hydroxypregnenolone dissolved in DMSO, contributing 2.5% v/v to the final assay mix, and phosphate buffer to give a total substrate concentration of 0.05 µM (=Km) per assay and subsequent incubation at 34°C for 6 minutes. Each assay was terminated by addition of 5 mL of chloroform:methanol (2:1). Carrier steroids representing substrates and produces (17α-hydroxypregnenolone, dehydroepiandrosterone, and androst-5-ene-3β,17β-diol) and 0.8 mL of distilled, deionized water were also added at this time. The steroids were extracted by the method of Moore and Wilson (Methods in Enzymol., eds. O. Malley, B.W. and Hardman, J.G. 36, 1975, pp. 466-474). The organic phase containing the steroids was evaporated using nitrogen gas, the residues dissolved in 18% tetrahydrofuran (v/v) in hexane, and the steroids were separated by HPLC on a Si60 (5 µm) column (250 x 4 mm) using a gradient of 18-22% tetrahydrofuran (v/v) in hexane. Radioactivity in the steroid peaks was measured using a Radiomatic® Model ES or Model A515 Flo-One® detector.
The enzyme activity for each assay was calculated from the percent conversion of substrate to products, and the results were expressed as percent inhibition of control. The following results were obtained, wherein the values indicated are the mean of duplicate determinations: Table 1: […]

In patent publication EP0880540B1, “17-BETA-CYCLOPROPYL(AMINO/OXY) 4-AZA STEROIDS AS ACTIVE INHIBITORS OF TESTOSTERONE 5-ALPHA-REDUCTASE AND C17-20-LYASE” (Aventis Pharmaceuticals Inc., priority 1996, dated 1997) one finds inhibition data, which are given here for one compound.

One may read the inhibition as the percentage by which the read-out fell short of the control.

Regarding `C[C@]12CC[C@H]3[C@@H](CC=C4NC(=O)CC[C@@]43C)[C@@H]1CC[C@@H]2OC1CC1` (stereo in doubt) [MDL 103,496, 17β-Cyclopropyloxy-4-aza-androst-5-en-3-one], the inhibition at 0.1 µM in assay [1] (preincubation 0 min) came to 24.6%; in assay [1] (preincubation 40 min), 29.5%; in assay [2] (preincubation 0 min), 5%; in assay [2] (preincubation 40 min) it was 26.6%. For the same compound, the inhibition at 1 µM amounted to 86.2% in assay [1] (preincubation 0 min), 86.7% in assay [1] (preincubation 40 min), 29% in assay [2] (preincubation 0 min) and 62.2% in assay [2] (preincubation 40 min). In addition, the inhibition at 10 µM stood at 99.6% in assay [1] (preincubation 0 min), 99.4% in assay [1] (preincubation 40 min), 39.2% in assay [2] (preincubation 0 min) and 87.7% in assay [2] (preincubation 40 min).
